These results are taken from ChEMBL document CHEMBL1201862, “PubChem BioAssay data set” (2004).

Assay in all cases: NCI tumour cell line growth inhibition, 48 h
For experiment [1], the system named is SN12C.
The test system of experiment [2] is A498.
The test system of experiment [3] is UO-31.
Experiment [4] deals with SF-539.
The subject of experiment [5] is SK-MEL-2.
Experiment [6] relates to SNB-19.
For experiment [7], the system named is OVCAR-3.
For experiment [8], the system named is HCT-15.
Experiment [9] has as its system SR.
Experiment [10] has as its system RXF 393.
Experiment [11] relates to HOP-92.
For experiment [12], the system named is M19-MEL.
Experiment [13] has as its system K562.
Experiment [14] concerns SW-620.
The subject of experiment [15] is NCI-H23.
For experiment [16], the system named is KM-20L2.
Experiment [17] deals with Malme-3M.
The test system of experiment [18] is 786-0.
Experiment [19] deals with TK-10.
Experiment [20] concerns MCF7.

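Dose response: 5 concentrations. Exposure: 48 h. Format: 96-well plates. Endpoint: linear interpolation; highest concentration if not reached. At the GI50, growth is halved.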 Activity calls are given as the source filed them. No stated cut-off is given here; in the data, active = GI50 up to about 1.1 µM and inactive = higher. A value given as a limit tells only on which side of the number the result lay.

Turning to `O=C(OCc1ccccc1)OOC(=O)OCc1ccccc1`, the GI50 in experiment [1], in experiment [2], in experiment [3], in [4], in experiment [5] and in experiment [6] was > 100 µM (inactive) in each case. Further, the GI50 was > 100 µM (inactive) in experiment [7]; more than 100 µM in [8]; > 100 µM (inactive) in experiment [9]; > 100 µM (inactive) in [10]; > 100 µM (inactive) in experiment [11]; > 100 µM (inactive) in experiment [12]. Besides, the GI50 in [13], in [14], in [15], in experiment [16] and in experiment [17] was > 100 µM (inactive) throughout.

`C[n+]1[se]c2ccccc2c1Cl`: the GI50 in experiment [1] is 15.5 µM (inactive); in [2], > 59.4 µM (inactive); in experiment [3], 24.8 µM (inactive); in [4], 19.3 µM (inactive); in experiment [5], 11.7 µM (inactive); in experiment [6], > 67.8 µM (inactive). The GI50 in experiment [18] was > 45 µM (inactive); in experiment [7] it was 27 µM (inactive); in experiment [19], > 43.4 µM (inactive); in [8], 24.7 µM; in [10], 19.5 µM (inactive); in experiment [11], 7.31 µM (inactive). For the same compound, the GI50 in experiment [12] was 10.3 µM (inactive); in [13], 36.4 µM (inactive); in [14] it was 20 µM (inactive); in experiment [15] it was 20.1 µM (inactive); in [16], > 51.1 µM (inactive); in [17], 23.3 µM (inactive).

On to `COc1ccc(/C(Cl)=C(\C=O)c2ccc(F)cc2)cc1`, for which the GI50 was 9.98 µM (inactive) in experiment [1]; 17.4 µM (inactive) in [2]; 8.15 µM (inactive) in [3]; 15.5 µM (inactive) in experiment [4]; 8.83 µM (inactive) in experiment [5]; 17.9 µM (inactive) in experiment [6]. Moreover, the GI50 in experiment [7] is 19.1 µM (inactive); in [19] it was 33.1 µM (inactive); in experiment [8] it was 4.24 µM; in experiment [11], 4.29 µM (inactive); in [12], 15 µM (inactive); in experiment [13] it was 4.78 µM (inactive). The GI50 in experiment [14] is 6.81 µM (inactive); in experiment [15], 14.8 µM (inactive); in [16] it was 6.87 µM (inactive); in experiment [17] it was 13.7 µM (inactive).

As to `C=C(CS(=O)(=O)c1ccccc1)[P+](c1ccccc1)(c1ccccc1)c1ccccc1`, the GI50 in [1] is 12.3 µM (inactive); in experiment [2], 35.7 µM (inactive); in experiment [3], 27.5 µM (inactive); in experiment [4], 23.5 µM (inactive); in experiment [5], > 100 µM (inactive); in [6] it was 28.4 µM (inactive). In addition, the GI50 was 19.9 µM (inactive) in experiment [18]; 14.8 µM (inactive) in experiment [7]; 31.4 µM (inactive) in experiment [19]; 23.6 µM in [8]; 19.2 µM (inactive) in experiment [10]; 24.5 µM (inactive) in experiment [11]. In addition, the GI50 in [12] is 17.3 µM (inactive); in experiment [13] it was 4.65 µM (inactive); in experiment [14], 18.2 µM (inactive); in experiment [15], 20.4 µM (inactive); in experiment [16] it was 17.5 µM (inactive); in [17], 12.1 µM (inactive).

Take `CCOC(=O)C(=O)NC12CC3CC(CC(C3)C1)C2`: the GI50 in [1], in [2], in experiment [3], in experiment [4], in experiment [5] and in experiment [6] was > 100 µM (inactive) each time. Besides, the GI50 in experiment [19] is > 100 µM (inactive); in experiment [8] it was more than 100 µM; in [10], > 100 µM (inactive); in [11], > 100 µM (inactive); in experiment [13], > 100 µM (inactive); in [14], > 100 µM (inactive). Further, the GI50 in experiment [15], in [16] and in experiment [17] was > 100 µM (inactive) each time.

As to `N/N=C(\C(=O)Nc1c(Cl)cc([N+](=O)[O-])cc1Cl)C(c1cnc2ccc([N+](=O)[O-])cc2n1)[N+](=O)[O-]` (stereo not drawn), the GI50 was 95.7 µM (inactive) in experiment [1]; > 100 µM (inactive) in experiment [2]; 87.7 µM (inactive) in [3]; > 100 µM (inactive) in [4]; > 100 µM (inactive) in experiment [5]; > 100 µM (inactive) in experiment [6]. The GI50 was > 100 µM (inactive) in experiment [19]; more than 100 µM in experiment [8]; > 100 µM (inactive) in experiment [9]; > 100 µM (inactive) in [10]; > 100 µM (inactive) in experiment [11]; > 100 µM (inactive) in experiment [12]. Further, the GI50 was 46.6 µM (inactive) in experiment [13], 99.3 µM (inactive) in [14], > 100 µM (inactive) in experiment [15] and > 100 µM (inactive) in [16].

For `COc1c2c(cc3c(CCc4ccccc4)cc(=O)oc13)CCC(C)(C)O2`, the GI50 in experiment [1] was > 100 µM (inactive); in experiment [3], > 100 µM (inactive); in experiment [5], > 100 µM (inactive); in experiment [7], > 100 µM (inactive); in [19] it was > 100 µM (inactive); in [8], more than 100 µM. Further, the GI50 is > 100 µM (inactive) in [9]; > 100 µM (inactive) in [10]; 2.34 µM (inactive) in experiment [11]; > 100 µM (inactive) in experiment [12]; > 100 µM (inactive) in experiment [13]; > 100 µM (inactive) in [14]. Moreover, the GI50 in experiment [15], in [16] and in experiment [17] was > 100 µM (inactive) each time.

As to `CC(=O)OCC1OC(Nc2ncc(-c3ccc(C)cc3)s2)C(OC(C)=O)C(OC(C)=O)C1OC(C)=O` (stereo not drawn), the GI50 was 25.4 µM (inactive) in experiment [1]; 48.2 µM (inactive) in experiment [2]; 19.8 µM (inactive) in experiment [3]; 43.8 µM (inactive) in experiment [4]; 34 µM (inactive) in experiment [5]; > 100 µM (inactive) in experiment [6]. Besides, the GI50 in experiment [7] was 31.6 µM (inactive); in [8], 37.5 µM; in experiment [20], 13.3 µM (inactive); in experiment [10], 47.3 µM (inactive); in experiment [11], 42.6 µM (inactive); in experiment [12], 18.8 µM (inactive). The GI50 was 34.2 µM (inactive) in experiment [13], 74.5 µM (inactive) in experiment [14], 50.7 µM (inactive) in [15] and 61.5 µM (inactive) in experiment [17].

Consider `COC(=O)C(Cc1ccc(N(C)C)cc1)(NC(=O)c1ccccc1)P(=O)(OC)OC` (stereo not drawn), for which the GI50 in [1], in experiment [2], in [3], in experiment [4], in experiment [5] and in experiment [6] was > 100 µM (inactive) each time. For the same compound, the GI50 is > 100 µM (inactive) in experiment [19]; more than 100 µM in experiment [8]; > 100 µM (inactive) in [9]; > 100 µM (inactive) in experiment [10]; > 100 µM (inactive) in experiment [11]; > 100 µM (inactive) in [12]. Also, the GI50 in [13], in [14], in experiment [15] and in experiment [16] was > 100 µM (inactive) each time.

`O=S1(=O)CC#CC[C@@H](CO)[C@@H](CO)CC#CC1`: the GI50 in experiment [1], in experiment [3], in experiment [4], in [5], in experiment [18] and in experiment [7] was > 100 µM (inactive) in each case. The GI50 in [19] was > 100 µM (inactive); in experiment [8], more than 100 µM; in experiment [9], 38.7 µM (inactive); in [10], > 100 µM (inactive); in experiment [11], 31.5 µM (inactive); in experiment [12] it was 47.1 µM (inactive). Moreover, the GI50 in experiment [13] was 59 µM (inactive); in experiment [14] it was 36.4 µM (inactive); in experiment [15], > 100 µM (inactive); in experiment [16], > 100 µM (inactive); in experiment [17] it was 21.7 µM (inactive).

As to `O=C1C2C3C=C4c5ccccc5N(c5ccccc5)C4(C2C(=O)N1Cc1ccccc1)C1C(=O)N(Cc2ccccc2)C(=O)C31` (stereo not drawn), the GI50 in [1], in experiment [2], in experiment [3], in experiment [4], in experiment [5] and in [6] was > 100 µM (inactive) throughout. In addition, the GI50 is > 100 µM (inactive) in experiment [18]; > 100 µM (inactive) in experiment [19]; more than 100 µM in [8]; > 100 µM (inactive) in experiment [9]; 39.5 µM (inactive) in experiment [11]; 70.3 µM (inactive) in experiment [12]. The GI50 in [13], in experiment [14], in [15], in experiment [16] and in [17] was > 100 µM (inactive) throughout.

Turning to `C[Si](C)(C)/C(I)=C/CO`, the GI50 in [1] was 22 µM (inactive); in [2], 38.6 µM (inactive); in experiment [3] it was 34.4 µM (inactive); in experiment [4], 20 µM (inactive); in [5], 19.7 µM (inactive); in experiment [6] it was 29.6 µM (inactive). Also, the GI50 was 37.3 µM (inactive) in experiment [18]; 24.7 µM (inactive) in experiment [7]; 33.3 µM (inactive) in experiment [19]; 24.8 µM in experiment [8]; 24 µM (inactive) in experiment [11]; 20.8 µM (inactive) in [12]. Moreover, the GI50 in experiment [13] is 19.4 µM (inactive); in experiment [14], 23.3 µM (inactive); in experiment [15], 18 µM (inactive); in experiment [16] it was 20.5 µM (inactive); in [17] it was 27.1 µM (inactive).
